The test system of one test is PBMCs. The test is classed as cell-based, human.
Another test concerns RSV. The test is described as follows: RSV infection (viral titers) in 1-MT or vitamin K3 treated human MSCs. The following applies: human MSCs treated with 1-MT or vitamin K3. The test is classed as cell-based, respiratory syncytial virus.
Another test has as its system hMSCs. The test is described as follows: Boyden chamber invasion assay, hMSC migration towards LLC1 cells. To be noted: media containing 1MT, 24 hours coculture.
The target of the next test is IDO (Homo sapiens, UniProt P14902). The test is classed as cell-based. The following applies: RSV-infected MSCs treated with 1 mM 1-MT or 10 μM vitamin K3.
Sequence of IDO (P14902 whole entry): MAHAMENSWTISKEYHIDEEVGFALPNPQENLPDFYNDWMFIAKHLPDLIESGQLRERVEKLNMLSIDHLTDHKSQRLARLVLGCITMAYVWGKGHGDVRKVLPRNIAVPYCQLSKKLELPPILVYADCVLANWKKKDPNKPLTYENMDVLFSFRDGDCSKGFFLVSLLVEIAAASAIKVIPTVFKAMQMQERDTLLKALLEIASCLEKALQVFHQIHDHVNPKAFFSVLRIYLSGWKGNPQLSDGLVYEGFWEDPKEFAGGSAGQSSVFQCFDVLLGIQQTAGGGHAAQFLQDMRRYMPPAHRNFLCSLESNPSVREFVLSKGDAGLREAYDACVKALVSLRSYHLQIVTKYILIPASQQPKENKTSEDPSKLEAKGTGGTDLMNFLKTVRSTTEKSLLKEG

Where two headings read alike, the source gives them in different places.

Protocol for hMSCs: Migrated MSCs were counted after 24 h.
To test the effect of 1-MT on the migratory capacity of hMSCs the inventors used a Boyden chamber invasion assay with Lewis lung carcinoma (LLC1) cells in the bottom chamber to produce trophic factors. MSCs were seeded on the top of a matrigel layer above a PET membrane with 8.0 μm pores (BD Bioscience) and treated with control MSC media or media containing 1MT. Cells were cocultured for 24 hours before fixation in 4% paraformaldehyde in PBS. Upper matrigel layer was removed by cue tip and migrant cells were visualized and counted by Giemsa staining.

Consider `Cn1cc(C[C@H](N)C(=O)O)c2ccccc21` [1-MT, 1-methyltryptophan], for which the “effect on inhibition of PBMC proliferation by RSV-infected MSC conditioned medium (CFSE dye dilution)” value with PBMCs was “abolished the negative effect on PBMC proliferation”. In addition, in the test on RSV, the “RSV infection as determined by viral titers” value is recorded as “did not reduce RSV infection”. Also, the “migration of hMSC towards LLC1 cells” value in the test with hMSCs was “did not inhibit migration”.
Regarding `CC1=CC(=O)c2ccccc2C1=O` [vitamin K3], the kynurenine levels entry on IDO is reported as “reduced kynurenine levels”. Moreover, in the test with PBMCs (1 mM 1-MT or 10 μM vitamin K3, PHA, 5 days, flow cytometry), the “effect on inhibition of PBMC proliferation by RSV-infected MSC conditioned medium (CFSE dye dilution)” value is recorded as “abolished the negative effect on PBMC proliferation”. In the test with RSV, the “RSV infection as determined by viral titers” value is listed as “did not reduce RSV infection”.

Source of the values: patent US11607426B2, “Method of targeting oncolytic viruses to tumors” (UNIVERSITY OF SOUTH FLORIDA, priority 2016, dated 2023).
